Patent publication US9073821B2, “Hydroxamic acid derivative” (priority 2010, dated 2015)
pIC50: −log10 of the molar value.

What follows are compounds tested against Pseudomonas aeruginosa LpxC enzyme (Pseudomonas aeruginosa (strain ATCC 15692 / DSM 22644 / CIP 104116 / JCM 14847 / LMG 12228 / 1C / PRS 101 / PAO1), UniProt P47205) (assay: biochemical). Conditions: class symbols A/B/C by IC50; Table 3; read-out: Enzyme inhibitory activity (inhibitory activity on Pseudomonas aeruginosa LpxC enzyme).
Type: biochemical

pIC50 | SMILES
7.00 to 8.00 | CNC(=O)C(C(=O)NO)N(C)C(=O)c1ccc(C#Cc2ccc(COCC(C)(C)N)cc2)cc1 (stereo not shown) [Compound 508, 2-[{[4-({4-[(2-amino-2-methylpropoxy)methyl]phenyl}ethynyl)phenyl]carbonyl}(methyl)amino]-N-hydroxy-N′-methylpropanediamide]

Same assay, conditions: inhibitory activity on Pseudomonas aeruginosa LpxC enzyme, class symbols A/B/C; read-out: Enzyme inhibitory activity

pIC50 | SMILES
> 8.00 | CNC(=O)C(C(=O)NO)N(C)C(=O)c1ccc(-c2ccc3c(cnn3C)c2)cc1 (stereo not shown) [Compound 196, N-hydroxy-N′-methyl-2-{methyl[4-(1-methyl-1H-indazol-5-yl)benzoyl]amino}propanediamide]
> 8.00 | CNC(=O)C(C(=O)NO)N(C)C(=O)c1ccc(-c2ccc(CCN3CCOCC3)cc2)cc1 (stereo not shown) [Compound 236, N-hydroxy-N′-methyl-2-[methyl({4′-[2-(morpholin-4-yl)ethyl]biphenyl-4-yl}carbonyl)amino]propanediamide]
> 8.00 | CNC(=O)C(C(=O)NO)N(C)C(=O)c1ccc(-c2ccc(NC)c(C)c2)cc1 (stereo not shown) [Compound 45, N-hydroxy-N′-methyl-2-(methyl {[3′-methyl-4′-(methylamino)biphenyl-4-yl]carbonyl}amino)propanediamide]
> 8.00 | O=C(NC(C(=O)NO)C(=O)NCC(=O)N1CCCC1)c1ccc(-c2ccc(OCCO)cc2)cc1 (stereo not shown) [Compound 141, N-hydroxy-2-({[4′-(2-hydroxyethoxy)biphenyl-4-yl]carbonyl}amino)-N′-[2-oxo-2-(pyrrolidin-1-yl)ethyl]propanediamide]
7.00 to 8.00 | CNC(=O)C(C(=O)NO)N(C)C(=O)c1ccc(-c2ccc(OCC3(CN4CCOCC4)CC3)cc2)cc1 (stereo not shown) [Compound 102, N-hydroxy-N′-methyl-2-{methyl[(4′-{[1-(morpholin-4-ylmethyl)cyclopropyl]methoxy}biphenyl-4-yl)carbonyl]amino}propanediamide]
> 8.00 | CNC(=O)C(C(=O)NO)N(C)C(=O)c1ccc(-c2ccc(OCCCN3CCOC3=O)cc2)cc1 (stereo not shown) [Compound 71, N-hydroxy-N′-methyl-2-[methyl({4′-[3-(2-oxo-1,3-oxazolidin-3-yl)propoxy]biphenyl-4-yl}carbonyl)amino]propanediamide]
> 8.00 | CNC(=O)C(C(=O)NO)N(C)C(=O)c1ccc(-c2ccc(NC3CCC3)cc2)cc1 (stereo not shown) [Compound 268, 2-[{[4′-(cyclobutylamino)biphenyl-4-yl]carbonyl}(methyl)amino]-N-hydroxy-N′-methylpropanediamide]
> 8.00 | CNC(=O)C(C(=O)NO)N(C)C(=O)c1ccc(-c2ccc(CCOC)cc2)cc1 (stereo not shown) [Compound 246, N-hydroxy-2-[{[4′-(2-methoxyethyl)biphenyl-4-yl]carbonyl}(methyl)amino]-N′-methylpropanediamide]
7.00 to 8.00 | CNC(=O)C(C(=O)NO)N(C)C(=O)c1ccc(-c2ccc(OCCCN(C)C)cc2)cc1 (stereo not shown) [Compound 274, 2-[({4′-[3-(dimethylamino)propoxy]biphenyl-4-yl}carbonyl)(methyl)amino]-N-hydroxy-N′-methylpropanediamide]
7.00 to 8.00 | O=C(NC(C(=O)NO)C(=O)NCC(F)F)c1ccc(-c2ccc(OCCO)cc2)cc1 (stereo not shown) [Compound 137, N-(2,2-difluoroethyl)-N′-hydroxy-2-({[4′-(2-hydroxyethoxy)biphenyl-4-yl]carbonyl}amino)propanediamide]
> 8.00 | CNC(=O)C(C(=O)NO)N(C)C(=O)c1ccc(C#Cc2ccc(OCCCN3CCOCC3)cc2)cc1 (stereo not shown) [Compound 465, N-hydroxy-N′-methyl-2-(methyl {[4-({4-[3-(morpholin-4-yl)propoxy]phenyl}ethynyl)phenyl]carbonyl}amino)propanediamide]
> 8.00 | O=C(NC(C(=O)NO)C(=O)NCC1CN(Cc2ccccc2)CCO1)c1ccc(-c2ccc(OCCO)cc2)cc1 (stereo not shown) [Compound 160, N-[(4-benzylmorpholin-2-yl)methyl]-N′-hydroxy-2-({[4′-(2-hydroxyethoxy)biphenyl-4-yl]carbonyl}amino)propanediamide]
